{"source": "patent US10273233B2", "about": "“Inhibitors of influenza viruses replication” (Vertex Pharmaceuticals Incorporated, priority 2015, dated 2019)", "key": {"[1]": {"test": "Two week solubility study (final form)", "settings": "Nitromethane"}, "[2]": {"test": "Toxicology formulation stability in 0.5% MC", "assay_type": "physicochemical", "settings": "0.5% MC in water suspension at 1, 60 and 100 mg/mL; ambient and 5° C.; two weeks", "method": "Hydrate 3 of Compound (1) was evaluated for chemical stability and homogeneity in 0.5% MC in water (suspension) at 1, 60 mg/mL and 100 mg/mL under ambient and refrigerated conditions (5° C.) for two weeks."}, "[3]": {"test": "6-month solid-state (open dish) stability", "assay_type": "physicochemical", "settings": "6 months open dish; 40° C./75% RH, 5° C./60% RH, 25° C./60% RH, 40° C./dry", "method": "A 6-month solid-state (open dish) stability study was performed for Hydrate 3 of Compound (1). Hydrate 3 of Compound (1) was stored for 6 months under the following conditions: 40° C./75% RH, 5° C./60% RH, 25° C./60% RH, and 40° C./dry."}, "[4]": {"settings": "rat, in vivo"}, "[5]": {"test": "Intrinsic dissolution rate determination"}, "[6]": {"settings": "monkey, in vivo"}}, "note": "Read-outs that look alike come from different tables or passages of the source."}
{"smiles": "CC(C)(C)[C@@H](CC(=O)O)Nc1nc(-c2c[nH]c3ncc(F)cc23)ncc1F", "note": "[Hydrate 3 of Compound (1)]", "values": [{"measurement": "Final Form (After two Weeks)", "setting": "[1]", "result": "Solvate"}, {"measurement": "bulk density", "setting": "Processing properties", "result": 0.172, "unit": "g/cc"}, {"measurement": "tap density", "setting": "Processing properties", "result": 0.383, "unit": "g/cc"}, {"measurement": "average flow factor (FFc)", "setting": "Processing properties; Ring Shear Testing (RST), good flow is 4-10", "result": 6.8}, {"measurement": "tensile strength", "setting": "Processing properties; at 180 MPa compression pressure", "result": 2, "unit": "MPa"}, {"measurement": "changes in purity (% Area) by HPLC", "setting": "[2]", "result": "no changes were observed"}, {"measurement": "chemical changes on storage", "setting": "[3]", "result": "no significant chemical changes"}, {"measurement": "crystallinity on storage by XRPD", "setting": "[3]", "result": "remained crystalline"}, {"measurement": "dose up to which exposures increase proportionally", "setting": "[4]", "result": "up to 500 mg/kg"}, {"measurement": "intrinsic dissolution rate (IDR)", "setting": "[5]; FaSSGF", "result": 0.020, "unit": "mg/min/cm^2"}, {"measurement": "intrinsic dissolution rate (IDR)", "setting": "[5]; FaSSIF", "result": 0.012, "unit": "mg/min/cm^2"}, {"measurement": "dose up to which exposures increase proportionally", "setting": "[6]", "result": "up to 250 mg/kg"}]}
